This note sets out measurements from US20220370416A1, “COMPOUNDS AND METHODS FOR TARGETED DEGRADATION OF KRAS” (Arvinas Operations, Inc., priority 2020, published 2022).

Experiment [1] deals with T1, HiBit-KRAS^G12C (Homo sapiens, UniProt P01116, G12C). The experiment can be described thus: HiBit degradation assay in MiaPaCa-2 HiBit-KRas^G12C cells. The format is cell-based. To be noted: 24 hours; for Dmax: MIA PaCa-2, MiaPaCa-2 HiBit-KRas^G12C cells. In outline:
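DC50 and Dmax come from 4-parameter fits of DMSO-normalized HiBit luminescence after 24 hours' exposure at 37° C to 10 μM–20 nM compound in 0.1% or 0.5% DMSO. Cells: MiaPaCa-2 carrying one endogenously HiBit-tagged KRAS^G12C allele; concentrations causing ≥50% […] viability loss (alamar blue) excluded.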
A general note: The HiBiT peptide binds its large partner to form an active luciferase.

The target of experiment [2] is T1, HiBit-KRAS^G12C. Description: HiBit degradation assay in SW1573 HiBit-KRas^G12C cells. To be noted: 24 hours. In kind it is cell-based. Details: expressed in transfected cells; host or cells: SW1573 (clone E6), modified pcDNA3.1 vector, TK promoter. An outline of the steps:
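HiBit-KRAS G12C degradation was measured after a 24 h compound exposure (titrated 10 μM–20 nM) in engineered SW1573 cells. Lytic HiBit luminescence, expressed relative to DMSO controls, yielded DC50 and Dmax from 4-parameter fits. Concentrations causing ≥50% loss in alamar blue viability were omitted as cytotoxic.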

Where [3] appears, read: read-out: KRas^G12C-HiBiT (MiaPaCa; 0.5% DMSO) IC50, MiaPaCa-2 HiBit-KRas^G12C cells, 0.5% DMSO.
Setting [4] is: SW1573, SW1573 HiBit-KRas^G12C, 0.5% DMSO, read-out: KRas^G12C-HiBiT (SW1573; 0.5% DMSO) Dmax**.
Where [5] appears, read: read-out: KRas^G12C-HiBiT (SW1573; 0.5% DMSO) IC50***, SW1573 HiBit-KRas^G12C, 0.5% DMSO.
[6] abbreviates: 0.5% DMSO, maximum degradation, read-out: KRas^G12C-HiBiT (MiaPaCa; 0.5% DMSO) DMax.
Setting [7] is: read-out: KRas^G12C-HiBiT (MiaPaCa; 0.1% DMSO) IC50, MiaPaCa-2 HiBit-KRas^G12C cells, 0.1% DMSO.
[8] abbreviates: SW1573, SW1573 HiBit-KRas^G12C, 0.1% DMSO, read-out: KRas^G12C-HiBit (SW1573; 0.1% DMSO) Dmax**.
Where [9] appears, read: SW1573 HiBit-KRas^G12C, 0.1% DMSO, read-out: KRas^G12C-HIBit (SW1573; 0.1% DMSO) DC50*.

T1 sequence (P01116 1-186 isoform P01116-2 G12C limits assumed): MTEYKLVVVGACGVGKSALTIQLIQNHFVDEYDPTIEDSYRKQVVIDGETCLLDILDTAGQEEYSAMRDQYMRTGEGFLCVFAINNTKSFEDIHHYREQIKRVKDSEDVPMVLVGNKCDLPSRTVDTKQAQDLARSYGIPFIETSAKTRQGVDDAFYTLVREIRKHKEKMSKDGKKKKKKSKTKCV

`C=CC(=O)N1CCN(c2nc(OCCN3CCC(COCC(=O)N[C@H](C(=O)N4C[C@@H](O)C[C@H]4C(=O)N[C@@H](C)c4ccc(-c5scnc5C)cc4)C(C)(C)C)CC3)nc3c(F)c(-c4cccc5cccc(C)c45)c(Cl)cc23)C[C@@H]1CC#N` [Compound 97]: the DC50 in experiment [1] (setting [3]) and in experiment [2] (setting [5]) was more than 1000 nM throughout. Moreover, in experiment [2] (setting [4]), the Dmax is more than 70%.

On to `C=CC(=O)N1CCN(c2nc(OCCN3CCC(COCC(=O)N[C@H](C(=O)N4C[C@@H](O)C[C@H]4C(=O)N[C@@H](C)c4ccc(-c5scnc5C)cc4)C(C)(C)C)CC3)nc3c(F)c(-c4cc(O)cc5ccccc45)c(Cl)cc23)C[C@@H]1CC#N` (atropisomer, axis not shown) [Compound 162, (2S,4S)-1-[(2S)-2-[2-({1-[2-({6-chloro-4-[(3S)-3-(cyanomethyl)-4-(prop-2-enoyl)piperazin-1-yl]-8-fluoro-7-(3-hydroxynaphthalen-1-yl)quinazolin-2-yl}oxy)ethyl]piperidin-4-yl}methoxy)acetamido]-3,3-dimethylbutanoyl]-4-hydroxy-N-[(1S)-1-[4-(4-methyl-1,3-thiazol-5-yl)phenyl]ethyl]pyrrolidine-2-carboxamide], for which the Dmax in experiment [1] (setting [6]) is 35 to 70%; in experiment [2] (setting [4]), less than 35%.

For `C=CC(=O)N1CCN(c2nc(OC[C@@H]3C[C@@H](OCCOc4cc(-c5scnc5C)ccc4CNC(=O)[C@@H]4C[C@@H](O)CN4C(=O)[C@H](c4cc(C)no4)C(C)C)CN3C)nc3c2CCN(c2cccc4ccccc24)C3)C[C@@H]1CC#N` [Compound 89, (2S,4R)-N-{[2-(2-{[(3R,5S)-5-[({4-[(3S)-3-(cyanomethyl)-4-(prop-2-enoyl)piperazin-1-yl]-7-(naphthalen-1-yl)-5H,6H,7H,8H-pyrido[3,4-d]pyrimidin-2-yl}oxy)methyl]-1-methylpyrrolidin-3-yl]oxy}ethoxy)-4-(4-methyl-1,3-thiazol-5-yl)phenyl]methyl}-4-hydroxy-1-[(2S)-3-methyl-2-(3-methyl-1,2-oxazol-5-yl)butanoyl]pyrrolidine-2-carboxamide], the DC50 in experiment [1] (setting [7]) was more than 1000 nM; in experiment [1] (setting [3]), more than 1000 nM; in experiment [2] (setting [9]) it was 100 to 1000 nM; in experiment [2] (setting [5]), more than 1000 nM. The Dmax in experiment [2] (setting [8]) lay in the range of 35 to 70%.

With `C=CC(=O)N1CCN(c2nc(OCCN3CCC(COc4cc([C@@H](C(=O)N5C[C@H](O)C[C@H]5C(=O)N[C@@H](C)c5ccc(-c6scnc6C)cc5)C(C)C)on4)CC3)nc3c(F)c(-c4cc(O)cc5ccccc45)c(Cl)cc23)C[C@@H]1CC#N` (atropisomer, axis not shown) [Compound 154, (2S,4R)-1-[(2S)-2-[3-({1-[2-({6-chloro-4-[(3S)-3-(cyanomethyl)-4-(prop-2-enoyl)piperazin-1-yl]-8-fluoro-7-(3-hydroxynaphthalen-1-yl)quinazolin-2-yl}oxy)ethyl]piperidin-4-yl}methoxy)-1,2-oxazol-5-yl]-3-methylbutanoyl]-4-hydroxy-N-[(1S)-1-[4-(4-methyl-1,3-thiazol-5-yl)phenyl]ethyl]pyrrolidine-2-carboxamide], in experiment [1] (setting [6]), the Dmax is less than 35%. Also, the values for the DC50 in experiment [1] (setting [3]) and in experiment [2] (setting [5]) were 100 to 1000 nM and more than 1000 nM, respectively.

As to `C=CC(=O)N1CCN(c2nc(O[C@H](C)CN3CCC(CCCOC4CN(CC(=O)N[C@H](C(=O)N5C[C@H](O)C[C@H]5C(=O)N[C@@H](C)c5ccc(-c6scnc6C)cc5)C(C)(C)C)C4)CC3)nc3c(F)c(-c4cc(O)cc5ccccc45)c(Cl)cc23)CC1` [Compound 48, (2S,4R)-1-[(2S)-2-{2-[3-(3-{1-[(2R)-2-{[6-chloro-8-fluoro-7-(3-hydroxynaphthalen-1-yl)-4-[4-(prop-2-enoyl)piperazin-1-yl]quinazolin-2-yl]oxy}propyl]piperidin-4-yl}propoxy)azetidin-1-yl]acetamido}-3,3-dimethylbutanoyl]-4-hydroxy-N-[(1S)-1-[4-(4-methyl-1,3-thiazol-5-yl)phenyl]ethyl]pyrrolidine-2-carboxamide], the DC50 in experiment [1] (setting [7]) was more than 1000 nM; in experiment [2] (setting [9]) it was 100 to 1000 nM. In experiment [2] (SW1573, read-out: KRas^G12C-HiBit (SW1573; 0.1% DMSO) Dmax**, SW1573 HiBit-KRas^G12C, 0.1% DMSO), the Dmax is less than 35%.

Turning to `C=CC(=O)N1CCN(c2nc(OCCN3CCC(COc4cc([C@H](C(=O)N5C[C@H](O)C[C@H]5C(=O)N[C@@H](C)c5ccc(-c6scnc6C)cc5)C(C)C)on4)CC3)nc3c(F)c(-c4cc(O)cc5ccccc45)c(Cl)cc23)CC1` (atropisomer, axis not shown) [Compound 147, (2S,4R)-1-[(2R)-2-(3-{[1-(2-{[6-chloro-8-fluoro-7-(3-hydroxynaphthalen-1-yl)-4-[4-(prop-2-enoyl)piperazin-1-yl]quinazolin-2-yl]oxy}ethyl)piperidin-4-yl]methoxy}-1,2-oxazol-5-yl)-3-methylbutanoyl]-4-hydroxy-N-[(1S)-1-[4-(4-methyl-1,3-thiazol-5-yl)phenyl]ethyl]pyrrolidine-2-carboxamide], in experiment [1] (MiaPaCa-2 HiBit-KRas^G12C cells, 0.5% DMSO, maximum degradation), the “KRas^G12C-HiBiT (MiaPaCa; 0.5% DMSO) DMax” value is on record as “B (35 < B < 70)”. The DC50 in experiment [1] (setting [3]) and in experiment [2] (setting [5]) was 100 to 1000 nM throughout. Moreover, in experiment [2] (setting [4]), the Dmax is more than 70%.

For the molecule `C=C(F)C(=O)N1CCN(c2nc(OCCN3CCC(C)(COc4cc([C@H](C(=O)N5C[C@H](O)C[C@H]5C(=O)N[C@@H](C)c5ccc(-c6ccnn6C)cc5)C(C)C)on4)CC3)nc3c(F)c(-c4cc(O)cc5ccccc45)c(Cl)cc23)C[C@@H]1CC#N` (atropisomer, axis not shown) [Compound 124, (2S,4R)-1-[(2R)-2-[3-({1-[2-({6-chloro-4-[(3S)-3-(cyanomethyl)-4-(2-fluoroprop-2-enoyl)piperazin-1-yl]-8-fluoro-7-(3-hydroxynaphthalen-1-yl)quinazolin-2-yl}oxy)ethyl]-4-methylpiperidin-4-yl}methoxy)-1,2-oxazol-5-yl]-3-methylbutanoyl]-4-hydroxy-N-[(1S)-1-[4-(1-methyl-1H-pyrazol-5-yl)phenyl]ethyl]pyrrolidine-2-carboxamide], the Dmax in experiment [1] (setting [6]) and in experiment [2] (setting [4]) was 35 to 70% each time. Further, the DC50 in experiment [1] (setting [3]) and in experiment [2] (setting [5]) was less than 100 nM in each case.

Consider `C=CC(=O)N1CCN(c2nc(O[C@H](C)CN3CCC(OCCOCC(=O)N[C@H](C(=O)N4C[C@@H](O)C[C@H]4C(=O)N[C@@H](C)c4ccc(-c5scnc5C)cc4)C(C)(C)C)CC3)nc3c(F)c(-c4cc(O)cc5ccccc45)c(Cl)cc23)CC1` [Compound 82, (2S,4S)-1-[(2S)-2-{2-[2-({1-[(2R)-2-{[6-chloro-8-fluoro-7-(3-hydroxynaphthalen-1-yl)-4-[4-(prop-2-enoyl)piperazin-1-yl]quinazolin-2-yl]oxy}propyl]piperidin-4-yl}oxy)ethoxy]acetamido}-3,3-dimethylbutanoyl]-4-hydroxy-N-[(1S)-1-[4-(4-methyl-1,3-thiazol-5-yl)phenyl]ethyl]pyrrolidine-2-carboxamide], for which the Dmax in experiment [1] (0.1% DMSO, maximum degradation, read-out: KRas^G12C-HiBiT (MiaPaCa; 0.1% DMSO) DMax) was 35 to 70%; in experiment [1] (setting [6]) it was 35 to 70%; in experiment [2] (setting [8]), 35 to 70%; in experiment [2] (setting [4]) it was less than 35%. Moreover, in experiment [2] (setting [9]), the DC50 is more than 1000 nM.

Regarding `C=CC(=O)N1CCN(c2nc(OCCN3CCC(COc4cc([C@@H](C(=O)N5C[C@@H](O)C[C@H]5C(=O)N[C@@H](C)c5ccc(-c6scnc6C)cc5)C(C)C)on4)CC3)nc3c(F)c(-c4cc(O)cc5ccccc45)c(Cl)cc23)C[C@@H]1CC#N` (atropisomer, axis not shown) [Compound 105, (2S,4S)-1-[(2S)-2-[3-({1-[2-({6-chloro-4-[(3S)-3-(cyanomethyl)-4-(prop-2-enoyl)piperazin-1-yl]-8-fluoro-7-(3-hydroxynaphthalen-1-yl)quinazolin-2-yl}oxy)ethyl]piperidin-4-yl}methoxy)-1,2-oxazol-5-yl]-3-methylbutanoyl]-4-hydroxy-N-[(1S)-1-[4-(4-methyl-1,3-thiazol-5-yl)phenyl]ethyl]pyrrolidine-2-carboxamide], the Dmax in experiment [1] (setting [6]) is less than 35%. The DC50 in experiment [1] (setting [3]) is less than 100 nM; in experiment [2] (setting [5]), more than 1000 nM.
